Eleven molecules from ChEMBL document CHEMBL1201862, “PubChem BioAssay data set” (2004) can be followed below.

Test systems include HCC 2998; HL-60; OVCAR-4; A498; OVCAR-5; PC-3; RPMI-8226; HOP-92; UO-31; SK-MEL-5; SF-539; U-251; HCT-116; 786-0; M14; CCRF-CEM; SW-620; SK-MEL-2; SR; NCI-H522.
Common to all, as to test: growth of human tumour cells (NCI), 48 h

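In this assay, cells in 96-well plates receive the compound at five concentrations for 48 hours. Endpoints are linearly interpolated between the surrounding concentrations. GI50 marks 50% less growth.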 Activity calls are given as the source filed them. Cut-off read from the data, not from the text of the source: active = GI50 up to about 1.1 µM and inactive = higher.

Take `COc1ccc2c(c1)[nH]c1c3ccc(OC)cc3oc(=O)c21`: the GI50 in the assay on HCC 2998 is > 100 µM (inactive); in the assay on HL-60, 0.867 µM (active); with OVCAR-4, > 100 µM (inactive); in the assay with A498, > 100 µM (inactive); in the assay with OVCAR-5, > 100 µM (inactive); in the assay on PC-3, > 100 µM (inactive). Further, the GI50 in the assay with RPMI-8226 was 60.7 µM (inactive); in the assay with HOP-92 it was > 100 µM (inactive); in the assay on UO-31 it was > 100 µM (inactive); in the assay on SK-MEL-5, > 100 µM (inactive); in the assay with SF-539, > 100 µM (inactive); in the assay on U-251 it was > 100 µM (inactive). Besides, the GI50 was > 100 µM (inactive) in the assay with HCT-116; 0.432 µM (active) with 786-0; > 100 µM (inactive) in the assay with M14; > 100 µM (inactive) with CCRF-CEM; > 100 µM (inactive) in the assay on SW-620; > 100 µM (inactive) in the assay on SK-MEL-2.
As for `CCCCN1C(=O)c2c(Br)sc(Br)c2C1=O`, the GI50 with HCC 2998 was 33.8 µM (inactive); in the assay on SR, 21.2 µM (inactive); in the assay with OVCAR-4, 25.7 µM (inactive); in the assay with A498, 50.6 µM (inactive); in the assay on OVCAR-5, 30.4 µM (inactive); with PC-3, 28.8 µM (inactive). Also, the GI50 in the assay with RPMI-8226 is 29.3 µM (inactive); in the assay on UO-31 it was 33.9 µM (inactive); with SK-MEL-5, 39.5 µM (inactive); with SF-539, 24.2 µM (inactive); with U-251, 39.1 µM (inactive); in the assay on HCT-116, 24.9 µM (inactive). Besides, the GI50 in the assay on 786-0 was 37 µM (inactive); with M14, 31.1 µM (inactive); in the assay on CCRF-CEM it was 26.3 µM (inactive); in the assay with SW-620, 24.8 µM (inactive); with SK-MEL-2, 46 µM (inactive); in the assay with NCI-H522, 0.391 µM (active).
With `Cc1cc(OC(=O)Nc2cccc3ccccc23)c(C(C)C)cc1C(=S)Nc1ccccc1`, the GI50 was 20.6 µM (inactive) in the assay with HCC 2998; 6.49 µM (inactive) in the assay with SR; 2.42 µM (inactive) in the assay with HL-60; 11 µM (inactive) in the assay with OVCAR-4; 20.7 µM (inactive) with OVCAR-5; 15.7 µM (inactive) with PC-3. Further, the GI50 was 21.1 µM (inactive) in the assay on RPMI-8226; 17.6 µM (inactive) with UO-31; 14.4 µM (inactive) in the assay with SK-MEL-5; 16.7 µM (inactive) in the assay with SF-539; 18.1 µM (inactive) in the assay on U-251; 17.8 µM (inactive) in the assay on HCT-116. The GI50 with 786-0 is 23.4 µM (inactive); in the assay with M14 it was 18.6 µM (inactive); in the assay on CCRF-CEM it was 7.6 µM (inactive); with SW-620, 16.8 µM (inactive); with SK-MEL-2 it was 13.7 µM (inactive); in the assay with NCI-H522, 14.1 µM (inactive).
In the case of `CCSC1=N/C(=C\c2ccc(N(C)C)cc2)C(Cl)=N1`, the GI50 in the assay with HCC 2998, in the assay on HL-60, with OVCAR-4, with A498, in the assay with OVCAR-5 and with PC-3 was > 100 µM (inactive) throughout. Also, the GI50 in the assay with RPMI-8226 is 59.3 µM (inactive); in the assay with HOP-92 it was > 100 µM (inactive); in the assay on UO-31 it was > 100 µM (inactive); with SK-MEL-5 it was > 100 µM (inactive); in the assay with U-251 it was > 100 µM (inactive); in the assay on HCT-116 it was > 100 µM (inactive). The GI50 in the assay with 786-0, in the assay on M14, in the assay with CCRF-CEM, with SW-620, with SK-MEL-2 and with NCI-H522 was > 100 µM (inactive) each time.
In the case of `C=CCCC1(CC(Sc2ccccc2)P(=O)(c2ccccc2)c2ccccc2)OCCO1` (centres undefined), the GI50 in the assay with HCC 2998, in the assay on SR, in the assay with HL-60, with OVCAR-4, in the assay on A498 and in the assay on OVCAR-5 was > 10 µM (inactive) each time. Further, the GI50 in the assay on PC-3, in the assay on RPMI-8226, with UO-31, in the assay with SK-MEL-5, in the assay on SF-539 and with U-251 was > 10 µM (inactive) each time. Besides, the GI50 in the assay with HCT-116, in the assay on 786-0, in the assay with M14, in the assay on CCRF-CEM, in the assay with SW-620 and in the assay with SK-MEL-2 was > 10 µM (inactive) each time.
`CN(C)C(=S)S` [SODIUM DIMETHYLCARBAMODITHIOATE]: the GI50 is 20.1 µM (inactive) with HCC 2998; 1.33 µM (inactive) in the assay with HL-60; 36.9 µM (inactive) with OVCAR-4; > 100 µM (inactive) in the assay on A498; > 100 µM (inactive) with OVCAR-5; 3.37 µM (inactive) with PC-3. For the same molecule, the GI50 with RPMI-8226 was 17.5 µM (inactive); in the assay on HOP-92 it was > 100 µM (inactive); in the assay with UO-31, 56.4 µM (inactive); in the assay with SK-MEL-5, 4.14 µM (inactive); in the assay on SF-539 it was > 100 µM (inactive); with U-251, 98.6 µM (inactive). Moreover, the GI50 is 25.5 µM (inactive) in the assay with HCT-116; > 70 µM (inactive) in the assay with 786-0; > 100 µM (inactive) with M14; > 59.7 µM (inactive) with SW-620; 18.1 µM (inactive) in the assay on SK-MEL-2; 0.194 µM (active) with NCI-H522.
For `Cn1c(=O)c2c(nc3sc4ccccc4c(=O)n32)n(C)c1=O`, the GI50 in the assay on HCC 2998, in the assay on HL-60, in the assay on OVCAR-4, in the assay on A498, with OVCAR-5 and in the assay with PC-3 was > 100 µM (inactive) each time. Moreover, the GI50 in the assay with RPMI-8226, in the assay on HOP-92, in the assay with UO-31, in the assay on SK-MEL-5, in the assay with SF-539 and with U-251 was > 100 µM (inactive) in each case. In addition, the GI50 with HCT-116, in the assay with 786-0, in the assay on M14, in the assay with SW-620 and in the assay with SK-MEL-2 was > 100 µM (inactive) each time.
Consider `OC(CCN1CCN(CCOC(c2ccccc2)c2ccccc2)CC1)c1ccc(Br)cc1` (centres undefined), for which the GI50 with HCC 2998 is 1.73 µM (inactive); with HL-60, 10.1 µM (inactive); in the assay with OVCAR-4, 12.6 µM (inactive); in the assay with A498 it was 3.72 µM (inactive); in the assay with OVCAR-5, 14.9 µM (inactive); in the assay with PC-3 it was 10.9 µM (inactive). In addition, the GI50 with HOP-92 is 10.7 µM (inactive); with UO-31, 2.38 µM (inactive); with SK-MEL-5 it was 3.53 µM (inactive); with SF-539, 12.5 µM (inactive); in the assay with U-251, 11.9 µM (inactive); with HCT-116, 11.2 µM (inactive). The GI50 was 10.7 µM (inactive) with 786-0; 3.27 µM (inactive) in the assay on M14; 12.7 µM (inactive) in the assay with CCRF-CEM; 16.8 µM (inactive) with SW-620; 12.3 µM (inactive) in the assay on SK-MEL-2; 14.3 µM (inactive) with NCI-H522.
In the case of `c1ccc([P+](Cc2ccccc2C[P+](c2ccccc2)(c2ccccc2)c2ccccc2)(c2ccccc2)c2ccccc2)cc1`, the GI50 in the assay on HCC 2998 was > 100 µM (inactive); in the assay with HL-60, 22.8 µM (inactive); in the assay on A498 it was > 100 µM (inactive); in the assay on OVCAR-5, > 100 µM (inactive); in the assay on PC-3 it was > 100 µM (inactive); with RPMI-8226, 6.03 µM (inactive). The GI50 in the assay with UO-31 is > 100 µM (inactive); in the assay on SK-MEL-5, > 100 µM (inactive); in the assay with SF-539 it was > 100 µM (inactive); with U-251 it was 63.5 µM (inactive); in the assay with HCT-116, 29.4 µM (inactive); in the assay with 786-0, > 100 µM (inactive). Also, the GI50 in the assay on M14, in the assay with SW-620, in the assay on SK-MEL-2 and in the assay on NCI-H522 was > 100 µM (inactive) each time.
Regarding `N#Cc1c(N)[nH]c2ccc(Sc3ccccc3)cc12`, the GI50 was 0.516 µM (active) in the assay on HCC 2998; 0.0333 µM (active) in the assay with HL-60; 0.675 µM (active) in the assay on OVCAR-4; 0.196 µM (active) with A498; 0.964 µM (active) in the assay with OVCAR-5; 0.275 µM (active) in the assay on PC-3. Further, the GI50 in the assay with RPMI-8226 was 0.361 µM (active); with HOP-92, 1.78 µM (inactive); in the assay with UO-31, 0.236 µM (active); in the assay on SK-MEL-5 it was 0.145 µM (active); in the assay with SF-539 it was 0.234 µM (active); in the assay on U-251 it was 0.297 µM (active). Moreover, the GI50 was 0.111 µM (active) in the assay with HCT-116; 0.152 µM (active) in the assay with 786-0; 0.0828 µM (active) with M14; 0.151 µM (active) with CCRF-CEM; 0.121 µM (active) in the assay on SW-620; 0.338 µM (active) with SK-MEL-2. In addition, the GI50 in the assay with NCI-H522 is 0.112 µM (active).
Consider `CCOC(=O)c1c(C)cc(=O)n2c1[nH]c1ccccc12`, for which the GI50 in the assay with HCC 2998 was 78.7 µM (inactive); in the assay with HL-60, > 100 µM (inactive); with A498 it was 40.3 µM (inactive); with OVCAR-5, > 100 µM (inactive); with PC-3, > 100 µM (inactive); in the assay with HOP-92, > 100 µM (inactive). Besides, the GI50 is > 100 µM (inactive) with UO-31; > 100 µM (inactive) in the assay on SK-MEL-5; 31 µM (inactive) in the assay on SF-539; 34.6 µM (inactive) in the assay on U-251; 57.1 µM (inactive) with HCT-116; 63.5 µM (inactive) in the assay on 786-0. The GI50 in the assay on M14, with CCRF-CEM, with SW-620 and with SK-MEL-2 was > 100 µM (inactive) each time.
